Test results from patent US20230142913A1, “TRICYCLIC HETEROARENES, PHARMACEUTICAL COMPOSITIONS CONTAINING THE SAME, AND METHODS OF USING THE SAME” (priority 2021, published 2023).

These compounds were tested against T1, recombinant human Myt1 (full length PKMYT1) (Homo sapiens, UniProt Q99640) (assay: Recombinant human Myt1 kinase assay (ADP-Glo)). Details: not given.
T1 sequence (Q99640 1-499): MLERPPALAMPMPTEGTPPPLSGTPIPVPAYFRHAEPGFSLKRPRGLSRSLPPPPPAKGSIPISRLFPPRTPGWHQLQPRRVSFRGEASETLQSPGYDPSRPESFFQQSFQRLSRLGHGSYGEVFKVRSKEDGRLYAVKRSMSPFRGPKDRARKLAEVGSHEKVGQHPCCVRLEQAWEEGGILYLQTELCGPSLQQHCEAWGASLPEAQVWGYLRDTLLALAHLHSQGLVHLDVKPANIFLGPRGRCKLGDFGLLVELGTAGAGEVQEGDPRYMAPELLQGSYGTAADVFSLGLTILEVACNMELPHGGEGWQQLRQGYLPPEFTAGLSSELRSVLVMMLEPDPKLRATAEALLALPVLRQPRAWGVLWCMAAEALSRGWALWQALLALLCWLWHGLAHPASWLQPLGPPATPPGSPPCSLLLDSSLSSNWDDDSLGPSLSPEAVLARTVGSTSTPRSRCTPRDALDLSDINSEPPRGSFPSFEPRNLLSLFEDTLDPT
`Cc1ccc(O)c(C2CC2)c1-n1c(N)c(C(N)=O)c2nc3ccccc3nc21` [Compound 11] showed an IC50 of 2170 nM. `CCc1c(O)ccc(C)c1-n1c(N)c(C(N)=O)c2nc3ccccc3nc21` [Compound 12] showed an IC50 of 98 nM. Compound `Cc1ccc(O)cc1-n1c(N)c(C(=O)NC2CC2)c2nc3ccccc3nc21` [Compound 20, 2-amino-N-cyclopropyl-1-(5-hydroxy-2-methylphenyl)-1H-pyrrolo[2,3-b]quinoxaline-3-carboxamide] has an IC50 of 7580 nM. In the case of `Cc1ccc(O)c(C)c1-n1c(N)c(C(N)=O)c2nc3cc(-c4ccc(N5CCN(CCO)CC5)cc4)ccc3nc21` [Compound 52], the IC50 is reported as under 10 nM. Compound `Cc1ccc(O)c(C)c1-n1cc(C(N)=O)c2cc3c(cnn3C)nc21` [Compound 89, 5-(3-hydroxy-2,6-dimethylphenyl)-1-methyl-1,5-dihydropyrazolo[4,3-b]pyrrolo[3,2-e]pyridine-7-carboxamide] has an IC50 of 31 nM. `C=C(C)c1ccc2nc3c(C(N)=O)c(N)n(-c4c(C)ccc(O)c4C)c3nc2c1` [Compound 68, 2-amino-1-(3-hydroxy-2,6-dimethyl-phenyl)-7-isopropenyl-pyrrolo[3,2-b]quinoxaline-3-carboxamide or either 2-amino-1-(3-hydroxy-2,6-dimethyl-phenyl)-6-isopropenyl-pyrrolo[3,2-b]quinoxaline-3-carboxamide] was tested, and the IC50 was 13 nM. In the case of `NC(=O)c1c(N)n(-c2cc(O)ccc2Cl)c2nc3ccccc3nc12` [Compound 4], the IC50 is reported as 130 nM. `Cc1ccc(O)c(C)c1-n1c(N)c(C(N)=O)c2nc3cc(CCCO)ccc3nc21` [Compound 46, 2-amino-1-(3-hydroxy-2,6-dimethyl-phenyl)-6-(3-hydroxypropyl)pyrrolo[2,3-b]quinoxaline-3-carboxamide] gave an IC50 of under 10 nM. `Cc1ccc(O)cc1-n1c(N)c(C(N)=O)c2nc3nc(N)sc3nc21` [Compound 16, 2,6-diamino-5-(5-hydroxy-2-methylphenyl)-5H-pyrrolo[2,3-b]thiazolo[4,5-e]pyrazine-7-carboxamide] gave an IC50 of 94 nM. In the case of `NC(=O)c1c(N)n(-c2cccc3[nH]nc(Cl)c23)c2nc3ccccc3nc12` [Compound 8], the IC50 is reported as 289 nM. With `Cc1ccc(O)c(C)c1-n1c(N)c(C(N)=O)c2nc3cc(-c4cccc(C#N)c4)ccc3nc21` [Compound 48] the IC50 was 11 nM. `Cc1ccc(O)c(C)c1-n1c(N)c(C(N)=O)c2nc3c(F)ccc(F)c3nc21` [Compound 28] showed an IC50 of under 10 nM. In the case of `Cc1ccc(O)c(C)c1-n1c(N)c(C(N)=O)c2nc3cc(C4=CCOCC4)ccc3nc21` [Compound 51], the IC50 is reported as under 10 nM. With `Cc1ccc(O)c(C)c1-n1c(N)c(C(N)=O)c2nc3cc(-c4cn[nH]c4)ccc3nc21` [Compound 54] the IC50 was under 10 nM. `Cc1ccc(O)c(C)c1-n1c(N)c(C(N)=O)c2nc3cc(C#CCO)ccc3nc21` [Compound 45, 2-amino-1-(3-hydroxy-2,6-dimethyl-phenyl)-6-(3-hydroxyprop-1-ynyl)pyrrolo[2,3-b]quinoxaline-3-carboxamide] gave an IC50 of under 10 nM. Work on `Cc1ccc(O)cc1-n1cc(C(N)=O)c2nc3ccccc3nc21` [Compound 23] yielded an IC50 of 323 nM. `Cc1ccc(O)c(C)c1-n1c(N)c(C(N)=O)c2nc3c(nc21)CCCC3` [Compound 84] showed an IC50 of 11 nM. `Cc1ccc(O)c(C)c1-n1c(N)c(C(N)=O)c2nc3cc(C#CC4CC4)ccc3nc21` [Compound 40] gave an IC50 of under 10 nM. `Cc1ccc(O)c(C)c1-n1c(N)c(C(N)=O)c2nc3cc(C#CCN4CCOCC4)ccc3nc21` [Compound 44] gave an IC50 of under 10 nM. `NC(=O)c1c(N)n(-c2cccc3[nH]nc(F)c23)c2nc3ccccc3nc12` [Compound 9] was tested, and the IC50 was 281 nM. With `Cc1ccc(O)c(C)c1-n1c(N)c(C(N)=O)c2nc3c(C#CC4CC4)cccc3nc21` [Compound 33] the IC50 was 16 nM. Work on `Cc1ccc(O)c(C)c1-n1c(N)c(C(N)=O)c2nc3c(C4=CCOCC4)cccc3nc21` [Compound 34] yielded an IC50 of 12 nM. `Cc1ccc(O)c(C)c1-n1c(N)c(C(N)=O)c2nc3ccc(C#CCO)cc3nc21` [Compound 58] gave an IC50 of 11 nM. Work on `Cc1ccc(O)c(C)c1-n1c(N)c(C(N)=O)c2nc3cc(-c4ccccc4)ccc3nc21` [Compound 47] yielded an IC50 of under 10 nM. With `Cc1ccc(O)c(C)c1-n1c(N)c(C(N)=O)c2nc3c(-c4ccccc4)cccc3nc21` [Compound 36] the IC50 was 17 nM. With `Cc1ccc(O)c(C)c1-n1c(N)c(C(N)=O)c2nc3cc(C#Cc4cnccn4)ccc3nc21` [Compound 43] the IC50 was under 10 nM. For `Cc1c(O)ccc(C2CC2)c1-n1c(N)c(C(N)=O)c2nc3ccccc3nc21` [Compound 85], the IC50 was 48900 nM. `CCc1ccc(O)c(C)c1-n1c(N)c(C(N)=O)c2nc3ccccc3nc21` [Compound 13] showed an IC50 of 427 nM. With `Cc1ccc(O)c(C)c1-n1cc(C(N)=O)c2c3ccccc3cnc21` [Compound 88, 3-(3-hydroxy-2,6-dimethylphenyl)-3H-pyrrolo[2,3-c]isoquinoline-1-carboxamide] the IC50 was 32 nM. `Cc1ccc(O)c(C)c1-n1c(N)c(C(N)=O)c2nc3c(-c4cccn4C)cccc3nc21` [Compound 35] showed an IC50 of under 10 nM.

Same assay, conditions: Myt1 IC50 (nM), recombinant human Myt1 18 nM, ATP 10 μM, ADP-Glo luminescence
In the case of `Cc1ccc(O)c(C)c1-n1c(N)c(C(N)=O)c2nc3cccc(Br)c3nc21` [Compound 59, 2-amino-8-bromo-1-(3-hydroxy-2,6-dimethyl-phenyl)pyrrolo[3,2-b]quinoxaline-3-carboxamide], the IC50 is reported as under 10 nM. `Cc1ccc(O)c(C)c1-n1c(N)c(C(N)=O)c2nc3cc(Br)ccc3nc21` [Compound 38, 2-amino-6-bromo-1-(3-hydroxy-2,6-dimethyl-phenyl)pyrrolo[2,3-b]quinoxaline-3-carboxamide] gave an IC50 of under 10 nM. Work on `Cc1ccc(O)c(C)c1-n1c(N)c(C(N)=O)c2nc3cccc(-c4ccnn4C)c3nc21` [Compound 61] yielded an IC50 of under 10 nM. Work on `Cc1ccc(O)c(C)c1-n1c(N)c(C(N)=O)c2nc3cccc(C4=CCCC4)c3nc21` [Compound 62] yielded an IC50 of under 10 nM.

Same assay, conditions: read-out: Myt1 IC50; recombinant human Myt1 18 nM, ATP 10 μM, ADP-Glo luminescence
“2-amino-1-(3-hydroxy-2,6-dimethylphenyl)-1H-pyrido[2,3-b]pyrrolo[2,3-e]pyrazine-3-carboxamide or 2-amino-1-(3-hydroxy-2,6-dimethylphenyl)-1H-pyrido[2,3-b]pyrrolo[3,2-e]pyrazine-3-carboxamide [Compound 82]” showed an IC50 of 21 nM. For “2-amino-1-(3-hydroxy-2,6-dimethyl-phenyl)-7-(1-hydroxy-1-methyl-ethyl)pyrrolo[3,2-b]quinoxaline-3-carboxamide or 2-amino-1-(3-hydroxy-2,6-dimethyl-phenyl)-6-(1-hydroxy-1-methyl-ethyl)pyrrolo[3,2-b]quinoxaline-3-carboxamide [Compound 67]”, the IC50 was 10 nM. In the case of “2-amino-1-(3-hydroxy-2,6-dimethyl-phenyl)-7-(morpholine-4-carbonyl)pyrrolo[3,2-b]quinoxaline-3-carboxamide or 2-amino-1-(3-hydroxy-2,6-dimethyl-phenyl)-6-(morpholine-4-carbonyl)pyrrolo[3,2-b]quinoxaline-3-carboxamide [Compound 66]”, the IC50 is reported as 13 nM. For “2-amino-7-bromo-1-(3-hydroxy-2,6-dimethylphenyl)-1H-pyrido[2,3-b]pyrrolo[2,3-e]pyrazine-3-carboxamide or 2-amino-6-bromo-1-(3-hydroxy-2,6-dimethylphenyl)-1H-pyrido[2,3-b]pyrrolo[3,2-e]pyrazine-3-carboxamide [Compound 79]”, the IC50 was 30 nM.
